Data as given in PubChem BioAssay (NCI).
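Five compound concentrations were applied to cells in 96-well plates for 48 hours; endpoints were derived by simple linear interpolation of the resulting dose-response curve. GI50 marks 50% less growth. The concentration for full growth arrest is given as TGI.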

Assays:
Assay in all cases: growth of human tumour cells (NCI), 48 h
MOLT-4 leukemia = system: MOLT-4 leukemia
HOP-62 NSCLC = system: HOP-62 NSCLC
SF-295 CNS = system: SF-295 CNS
LOX IMVI melanoma = system: LOX IMVI melanoma
CAKI-1 renal = system: CAKI-1 renal
ACHN renal = system: ACHN renal
COLO 205 colon = system: COLO 205 colon
SK-MEL-2 melanoma = system: SK-MEL-2 melanoma
SF-268 CNS = system: SF-268 CNS
RXF 393 renal = system: RXF 393 renal

Structure (SMILES)	TGI (MOLT-4 leukemia) [µM]	TGI (HOP-62 NSCLC) [µM]	TGI (SF-295 CNS) [µM]	TGI (LOX IMVI melanoma) [µM]	TGI (CAKI-1 renal) [µM]	TGI (ACHN renal) [µM]	TGI (COLO 205 colon) [µM]	TGI (SK-MEL-2 melanoma) [µM]	TGI (SF-268 CNS) [µM]	GI50 (MOLT-4 leukemia) [µM]	GI50 (HOP-62 NSCLC) [µM]	GI50 (RXF 393 renal) [µM]	TGI (RXF 393 renal) [µM]	GI50 (LOX IMVI melanoma) [µM]	GI50 (CAKI-1 renal) [µM]	GI50 (ACHN renal) [µM]	GI50 (COLO 205 colon) [µM]	GI50 (SK-MEL-2 melanoma) [µM]	GI50 (SF-268 CNS) [µM]	GI50 (SF-295 CNS) [µM]
CN1CC(c2ccccc2)C(O)(C2(c3ccccc3)CN(C)CC(c3ccccc3)C2=O)C(c2ccccc2)C1 (centres undefined)	> 100	> 100	> 100	> 100	> 100	> 100	> 100	> 100	> 100											
CC[C@@]1(OC(=O)CN(C)C)C(=O)OCc2c1cc1n(c2=O)Cc2cc3c(N)cccc3nc2-1	0.211	0.432		0.162	0.0537	0.287	6.9	> 100	0.11	< 0.01	0.0119	0.144	0.576	0.014	< 0.01	0.0286	0.656	1.24	< 0.01	
O=C(O)C1OC1C(=O)O (centres undefined)		> 100	> 100	> 100	> 100	> 100	> 100	> 100	> 100				> 100							
OC(c1ccc(Cl)cc1)(c1ccc(Cl)cc1)c1cncnc1	52.3	35.3	37.2	> 100	36.2		35.2	32					28.4							
O=S(=O)(O)c1cc(S(=O)(=O)O)c2cc(N=Nc3c(O)ccc4ccccc34)ccc2c1	> 100	> 100	> 100	> 100	> 100	> 100	> 100	> 100	> 100				> 100							
O=C(O)C(O)(c1ccc(-c2ccccc2)cc1)c1ccc(-c2ccccc2)cc1	> 100	46.3	68.8	31.8	> 100	94.7		30.6	57.8				51.6							
Clc1ccc(C2CC(c3cccc(Nc4ccncc4)c3)=NN2c2ccc(Cl)cc2)cc1 (centres undefined)	5.52		2.96		2.79	3	4.75			2.18		1.54	2.94		1.46	1.64	2.09			1.58
COc1cc2c(cc1OC)C1c3ccccc3CCN1CCC2 (centres undefined)	> 100	> 100	> 100	> 100	> 100	> 100	> 100		> 100											
CCOC(=O)c1nc2ccccc2n(CC)c1=O	> 100	> 100	> 100	> 100	> 100	> 100	> 100	> 100	> 100				> 100							
COc1ccc(NC(=S)NNC(=O)c2nsc3ccccc23)cc1	87.8	> 100		> 100		> 100	> 100	90.8	> 100				72.9							
Nc1c(OCC(=O)O)ccc2cc(S(=O)(=O)O)ccc12		> 100	> 100	> 100	> 100	> 100	> 100	> 100	> 100				> 100							
c1ccc2c(c1)OCCc1cn[nH]c1-2	> 100	> 100	> 100	> 100	87.9		> 100	> 100	> 100				> 100							
CO/N=C(/C)c1cccc(Nc2nc3ccc(Cl)cc3c3[nH]c4ccccc4c23)c1	7.91	24.4	15.3	26	24.3	13.5	19.9	26.9	29.5				6.92							
O=NN1C(c2ccccc2)C2CCCC(C2=O)C1c1ccccc1 (centres undefined)	> 78.1	56	> 84.2	54.9	94.1		32	40.5	> 100				41.8							
CCCCN(CCCC)CCC(O)c1cc(-c2ccc(C(F)(F)F)cc2)nc(-c2ccc(C(F)(F)F)cc2)c1 (centres undefined)	> 100	> 100	> 100	> 100	> 100	> 100	> 100	> 100	> 100											
O=C(Nn1c(-c2cccs2)nc2ccc(I)cc2c1=O)c1ccccc1	> 100	> 100	91.7	46.9	51	> 100	> 100	69.4	> 100				> 100					24		
CC1C2CCC3C(O)C2(CC(O)C2(O)C1CC(O)C2(C)C)CC3(C)O (centres undefined)			> 100	> 100	> 100	> 100	> 100	> 100	> 100											
COc1ccc(C(=O)NC2=C(Cl)C(=O)c3ccccc3C2=O)cc1	> 22	60.8	13.8	6.66	6.94	1.73	3.74	3.13	35.6				8.25							
NC1C=NNC1=O (centres undefined)	> 100		> 100	> 100	> 100	> 100	> 100	> 100	> 100				> 100							
COC1CC(OC2CCC3(C)C(=CCC4C3C(OC(C)=O)C(OC(=O)CC(C)C)C3(C)C(C(C)=O)CCC43O)C2)OC(C)C1OC1CC(OC)C(OC2CC(OC)C(OC3OC(C)C(O)C(OC)C3O)C(C)O2)C(C)O1 (centres undefined)	45.6	> 100	> 100	43.5	> 100	> 100	45	93.3	> 100				47.2							
C[C@]12Cc3cnc(-c4ccccc4)nc3C[C@@H]1CC[C@@H]1[C@@H]2CC[C@@]2(C)[C@H]1CC[C@]2(C)O	> 100	41.6	52.4	31.3	16.6	> 64.9	43.2	58.3	33				12.3							
CN(CCO)Cc1ncccc1O	89.5	> 100	> 100	> 100	> 100	> 100	> 100	> 100	> 100				> 100							
